Values joined by “and” are separate entries in the source; they are usually repeats but may differ in a detail not shown here. Equal entries are not always repeated.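 Cells were grown in 96-well plates and exposed to each compound for 48 hours at five concentrations; endpoints were interpolated linearly between bracketing concentrations, or set to the highest concentration if not reached. GI50 marks 50% less growth. Definition used: TGI = concentration required for complete inhibition of growth.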 Where a SMILES comes first, the peptide text is derived from it. The star is where a group is joined. Cbz = O=C(OCc1ccccc1)*; Boc = CC(C)(C)OC(=O)*; Bn = c1ccc(C*)cc1
Columns and labels:
Assay in all cases: NCI anticancer screen, dose series, 48 h
[1] = tested on: MALME-3M melanoma
[2] = tested on: RPMI-8226 leukemia
[3] = tested on: A498 renal
[4] = tested on: UACC-257 melanoma
[5] = tested on: OVCAR-5 ovarian
[6] = tested on: NCI-H226 lung
[7] = tested on: SNB-75 CNS
[8] = tested on: M14 melanoma
[9] = tested on: UACC-62 melanoma
[10] = tested on: UO-31 renal
[11] = tested on: SK-OV-3 ovarian
[12] = tested on: RXF 393 renal
[13] = tested on: HCT-116 colon
[14] = tested on: HOP-62 NSCLC
[15] = tested on: HL-60(TB) leukemia
[16] = tested on: HCT-15 colon
[17] = tested on: ACHN renal
[18] = tested on: SR leukemia
[19] = tested on: NCI/ADR-RES ovarian

SMILES	TGI [1]	TGI [2]	TGI [3]	TGI [4]	TGI [5]	TGI [6]	TGI [7]	TGI [8]	TGI [9]	TGI [10]	TGI [11]	TGI [12]	TGI [13]	TGI [14]	TGI [15]	TGI [16]	TGI [17]	TGI [18]	TGI [19]	GI50 [12]
C=CN1C(=O)OC[C@@H]1c1ccccc1	> 100 µM	> 100 µM	> 100 µM	> 100 µM	> 100 µM	> 100 µM	> 100 µM	> 100 µM	> 100 µM	> 100 µM	> 100 µM	> 100 µM	> 100 µM	> 100 µM	> 100 µM	> 100 µM	> 100 µM			
CC(C)(C)OC(=O)NC(Cc1ccc(OCc2ccccc2)cc1)C(=O)NC(CCCCNC(=O)OCc1ccccc1)C(=O)O (stereo not given) (Boc-Tyr(Bn)-Lys(Cbz)-OH; configuration not given here)	> 100 µM	> 100 µM		> 100 µM	> 100 µM	> 100 µM	> 100 µM	> 100 µM	43.9 µM	> 100 µM		> 100 µM	> 100 µM	> 100 µM	86.9 µM			89.6 µM		
COc1ccc(N(C)Sc2ccccc2)cc1	> 100 µM	> 100 µM		> 100 µM	> 100 µM			> 100 µM	> 100 µM	> 100 µM	> 100 µM	53.4 µM	> 100 µM	> 100 µM	52.3 µM	> 100 µM		> 100 µM		
O/N=C/c1cc2c(cc1Br)OCO2	> 100 µM	> 100 µM	> 100 µM	> 100 µM	> 100 µM	> 100 µM	> 100 µM	> 100 µM	> 100 µM	> 100 µM	> 100 µM		> 100 µM	> 100 µM	> 100 µM	> 100 µM	> 100 µM	> 100 µM		
O=C(Cc1ccccc1)NN1C(=O)C(Cl)C1c1ccc([N+](=O)[O-])cc1 (stereo not given)	> 100 µM	> 100 µM		> 100 µM	> 100 µM	> 100 µM	> 100 µM	> 100 µM	> 100 µM	> 100 µM	> 100 µM	> 100 µM	> 100 µM	> 100 µM	> 100 µM	> 100 µM	> 100 µM	> 100 µM		
O=C(O)C12C3C4C1C1C2C3C1(Br)C41OCCO1 (stereo not given)	> 100 µM	> 100 µM	> 100 µM	> 100 µM	> 100 µM		> 100 µM			> 100 µM	> 100 µM	> 100 µM	> 100 µM	> 100 µM	> 100 µM		> 100 µM			
CSc1nc(-c2ccc(C)cc2)c(C#N)c(=O)[nH]1		> 100 µM	> 100 µM	> 100 µM	> 100 µM	> 100 µM	> 100 µM	> 100 µM	> 100 µM	> 100 µM	> 100 µM	> 100 µM	> 100 µM	> 100 µM	> 100 µM	> 100 µM	> 100 µM		> 100 µM	
CN(C(=O)c1ccc(Cl)cc1)C(=S)N1CCN(c2ccccn2)CC1	> 100 µM	> 100 µM		> 100 µM	> 100 µM	> 100 µM	> 100 µM	> 100 µM	> 100 µM	> 100 µM	> 100 µM	> 100 µM	> 100 µM	> 100 µM	> 100 µM	> 100 µM	> 100 µM	> 100 µM		
COc1cc(Cl)cc(N(O)C(C)=O)c1OCc1ccccc1	> 100 µM	> 100 µM	> 100 µM	> 100 µM	> 100 µM	> 100 µM	76.4 µM	> 100 µM	> 100 µM	> 100 µM	> 100 µM	> 100 µM	> 100 µM	> 100 µM	> 100 µM	> 100 µM	> 100 µM	> 100 µM		
Cc1cccc2c(=O)c3c(O)cc(O)cc3[nH]c12	> 10 µM	> 10 µM	> 10 µM	> 10 µM	> 10 µM	> 10 µM	> 10 µM	> 10 µM	> 10 µM	> 10 µM	> 10 µM	> 10 µM	> 10 µM	> 10 µM		> 10 µM	> 10 µM		> 10 µM	
COc1cc(C2c3cc4c(cc3[C@@H](NCCN3CCCCC3)C3COC(=O)[C@H]23)OCO4)cc(OC)c1O (stereo not given in full)	2.59 µM and 3.44 µM	5.69 µM and 3.93 µM	0.904 µM and 1.47 µM	41.4 µM and 85 µM	5.06 µM and 5.73 µM	0.209 µM and 0.208 µM	2.9 µM	1.44 µM and 2 µM	1.73 µM and 1.79 µM	1.8 µM and 1.99 µM	0.877 µM and 0.484 µM	1.98 µM and 4.14 µM	10.6 µM and 14.6 µM	0.283 µM	0.402 µM and 0.36 µM	2.26 µM and 2.15 µM				0.243 µM and 1.27 µM
Cc1cccc(NC(=O)c2cc3cc(N=Nc4ccccc4Cl)ccc3oc2=O)c1	> 100 µM	> 100 µM	> 100 µM	> 100 µM	56.8 µM	56.2 µM	> 100 µM	85.9 µM	42.5 µM	55.7 µM	> 100 µM	83.2 µM	57.3 µM	> 100 µM	> 100 µM	> 100 µM	> 100 µM			
CCn1c2ccccc2c2ccc3c(c21)C(=O)c1ccccc1C3=O	> 100 µM	> 100 µM	> 100 µM	> 100 µM		> 100 µM	> 100 µM	> 100 µM	> 100 µM	> 100 µM	> 100 µM	> 100 µM	> 100 µM	> 100 µM	> 100 µM	> 100 µM	> 100 µM	> 100 µM		
CCN(CC)CCC1CCCCN1CC(=O)N1c2ccccc2NC(=O)c2ccccc21 (stereo not given)	> 100 µM	> 100 µM	> 100 µM	> 100 µM	> 100 µM	> 100 µM	92.6 µM	> 100 µM	> 100 µM	> 100 µM	> 100 µM	> 100 µM	> 100 µM	> 100 µM	> 100 µM	> 100 µM	> 100 µM	> 100 µM		
O=C1/C(=C/c2ccc3c(c2)OCO3)CCC1CN1CCOCC1 (stereo not given)	22.6 µM	1.73 µM	23.9 µM	22.6 µM	31.8 µM	33.8 µM	28.7 µM	15.3 µM	20.5 µM	29.2 µM	32.9 µM	24.7 µM	14.5 µM	25.6 µM	3.99 µM	8.46 µM	24 µM	5.42 µM		
O=C1NC(=S)NC(=O)C1C(c1ccc([N+](=O)[O-])cc1)C1C(=O)NC(=S)NC1=O		> 100 µM	> 100 µM	> 100 µM	> 100 µM	> 100 µM		> 100 µM	> 100 µM	> 100 µM		> 100 µM	> 100 µM	> 100 µM	> 100 µM	> 100 µM	> 100 µM		> 100 µM	
Cc1cc(NC(=O)NC(=O)c2ccccc2N)ccc1Oc1ncc(Br)cn1	> 69.9 µM	> 100 µM	0.751 µM	54.2 µM	> 100 µM	6.64 µM	37.7 µM	> 31.2 µM	1.75 µM	> 59.6 µM	3.02 µM	1.62 µM	8.15 µM	31.2 µM	1.39 µM	8.31 µM	> 100 µM	> 15.8 µM		
N#CCC(=O)c1cc(OCc2cc(OCc3ccc(Br)cc3)cc(OCc3ccc(Br)cc3)c2)cc(OCc2cc(OCc3ccc(Br)cc3)cc(OCc3ccc(Br)cc3)c2)c1	> 100 µM	> 100 µM	> 100 µM	> 100 µM	> 100 µM	> 100 µM	> 100 µM	> 100 µM	> 100 µM	> 100 µM	> 100 µM		> 100 µM	> 100 µM		> 100 µM	> 100 µM		> 100 µM	
CCC(CC)n1cc(C(=O)NC(=O)NCCCCCOC(=O)CCCCCCCCCCC(=O)OCCCCCNC(=O)NC(=O)c2cn(C(CC)CC)c(=O)[nH]c2=O)c(=O)[nH]c1=O	> 100 µM	> 100 µM	> 100 µM	> 100 µM	> 100 µM	> 100 µM	53.5 µM	> 100 µM	> 100 µM	> 100 µM	> 100 µM	> 100 µM	> 100 µM	> 100 µM	> 100 µM	> 100 µM	> 100 µM	> 100 µM		
O=C1CCCCC1=C(I)I	27.5 µM	53.4 µM	35.5 µM		31.6 µM	42.7 µM	47.1 µM	32.3 µM	33.9 µM	30.5 µM	56.8 µM	30.5 µM	30.9 µM	57.5 µM	26.2 µM		31.7 µM	> 100 µM		
CC(C)(C)[Si](C)(C)OCC1OC(n2ccc(=O)[nH]c2=O)C(O[Si](C)(C)C(C)(C)C)[C@@]12O[C@H]2C(N)=O (stereo not given in full)		> 100 µM		> 100 µM	40.6 µM	11.4 µM	24.7 µM	42.9 µM	99.3 µM	19.6 µM	36.6 µM		22.1 µM	26.8 µM	> 100 µM	28.4 µM	16.5 µM		38.5 µM	
O=C1NCCCC12CCCNC2=O	> 100 µM	> 100 µM		> 100 µM		> 100 µM		> 100 µM		> 100 µM	> 100 µM	> 100 µM	> 100 µM	> 100 µM	> 100 µM	> 100 µM	> 100 µM	> 100 µM		
Nc1ccc(C(=O)NN2C(=O)C(Cl)C2c2cc(Br)ccc2O)cc1 (stereo not given)	> 100 µM	> 100 µM	> 100 µM	> 100 µM	> 100 µM	> 100 µM	> 100 µM	> 100 µM	> 100 µM	> 100 µM	> 100 µM		32.5 µM	> 100 µM	78.8 µM	> 100 µM	> 100 µM			
COc1ccc(C(Cc2cc(OC)c(OC)c(OC)c2)C(=O)O)cc1 (stereo not given)	> 100 µM	> 100 µM	> 100 µM	> 100 µM	> 100 µM	> 100 µM	65.2 µM	> 100 µM	> 100 µM	> 100 µM	> 100 µM		> 100 µM	> 100 µM		> 100 µM	> 100 µM			
COC(=O)C1CC=C(SC(=O)c2ccccc2)N1C(=O)c1ccccc1 (stereo not given)	> 100 µM	> 100 µM	> 100 µM	> 100 µM	> 100 µM		> 100 µM	> 100 µM	> 100 µM	> 100 µM	> 100 µM	> 100 µM	> 100 µM	> 100 µM		> 100 µM	> 100 µM		> 100 µM	
c1cc(CSP234N5CCN2CCN3CCN4CC5)ccc1CSP123N4CCN1CCN2CCN3CC4		84.6 µM		> 100 µM	> 100 µM		> 100 µM	> 100 µM	> 100 µM	> 100 µM			> 100 µM	> 100 µM	79.8 µM	> 100 µM	> 100 µM		> 100 µM	
C/C(=N\NC(=S)NC1CCCC1)c1ccccn1	> 28.6 µM	1.99 µM	> 28 µM		> 100 µM	15 µM	> 100 µM	15.7 µM	7.8 µM	22.3 µM	> 100 µM	29.1 µM	3.48 µM	> 81.9 µM		> 100 µM	20.1 µM			
Cc1ccccc1NC(=O)C(=O)CC(=O)c1sc(Nc2ccccc2[N+](=O)[O-])nc1C		> 100 µM		> 100 µM	> 100 µM	> 100 µM		> 100 µM	48 µM	32.4 µM	58.7 µM	89.1 µM	> 100 µM	58.1 µM	> 100 µM	> 100 µM	48.3 µM		> 100 µM	

— PubChem BioAssay (NCI)
